This is an account of results in US20040023362A1, “Degradation of polycyclic aromatic hydrocarbons by microorganisms” (priority 2000, published 2004).

One test relates to VUN 110,011. The experiment in a line: Growth of PAH-degrading bacteria on a variety of carbon sources. The format is cell-based, Pseudomonas fluorescens. The note with it: substrate 50 mg l^−1 (or vapor phase), sole carbon source. The procedure:
(§1) Gram staining and biochemical tests for bacterial identification were performed according to Collin et al. (1989) following growth in nutrient broth or nutrient agar. […] Compounds tested were added to BSM as a sole carbon and energy source at 50 mg l^−1, and volatile compounds were supplied to the culture in the vapour phase. […] The cells were collected and washed in BSM and the resuspended cells were inoculated into BSM containing different carbon sources. Inoculated BSM without an added carbon source and uninoculated BSM plus carbon source were used as controls. Inocula for the PAH degradation tests were transferred directly from parent cultures, but inocula for other carbon sources were washed prior to inoculation.

A further test concerns VUN 110,013. The format is cell-based, Burkholderia sp. The note with it: substrate 50 mg l^−1 (or vapor phase), sole carbon source. The procedure: as §1
In a further test the test system is VUN 110,012. The experiment in a line: Growth of PAH-degrading bacteria on a variety of carbon sources. It counts as cell-based, Stenotrophomonas maltophilia. The following applies: substrate 50 mg l^−1 (or vapor phase), sole carbon source. The procedure:
as §1

Another test deals with VUN 110,010. The test is described as above. It counts as cell-based, Stenotrophomonas maltophilia. The note with it: substrate 50 mg l^−1 (or vapor phase), sole carbon source. The method, then:
as §1

For test [1], the system named is strains VUN 10,010, VUN 10,011 and VUN 10,012. Description: Growth of all the strains on compounds as sole carbon and energy source. The format is cell-based. The following applies: supplied at 50 mg l^−1. The procedure: as §1
Test [2] has as its system S. maltophilia VUN 10,010. Description: Degradation of single high molecular weight PAHs by high initial populations of VUN 10,010 with surfactant. It counts as cell-based, Stenotrophomonas maltophilia. The method, then: […] Incubations contained a single PAH in BSM at 30° C. The PAH remaining was calculated as a percentage relative to the PAH recovered from the […]. Averages for the test cultures are from triplicate experiments.
Tergitol NP-10 (5 and 10 g l^−1) was added to BSM broths each containing a single high molecular weight PAH.

Setting [3] is: Tergitol NP-10 5 g l^−1, Single PAH.
[4] abbreviates: Tergitol NP-10 10 g l^−1, Single PAH.

Take `Oc1c(Cl)c(Cl)cc(Cl)c1Cl` [2,3,5,6-tetrachloro-phenol]: the Growth result in the test on VUN 110,011, with VUN 110,013, in the test with VUN 110,012 and in the test with VUN 110,010 was “+” throughout.

In the case of `Oc1cc(Cl)c(Cl)cc1Cl` [2,4,5-trichloro-phenol], the Growth result in the test with VUN 110,011, in the test with VUN 110,013, in the test with VUN 110,012 and in the test with VUN 110,010 was “+” throughout.

As for `Oc1cc(Cl)ccc1Cl` [2,5-dichlorophenol], the Growth result with VUN 110,011, in the test with VUN 110,013, in the test on VUN 110,012 and in the test on VUN 110,010 was “+” throughout. Besides, in test [1], the “growth on compound as the sole carbon and energy source” value (from here on “growth on compound”) is listed as “grew”.

Regarding `Oc1ccc(Cl)cc1` [4-chlorophenol], the Growth entry is on record as “−” in the test on VUN 110,011, “+” with VUN 110,013, “+” with VUN 110,012 and “+” with VUN 110,010. For the same compound, the “growth on compound” value in test [1] is given as “grew”.

As for `O=[N+]([O-])c1ccc(O)cc1` [4-nitrophenol], the Growth result in the test with VUN 110,011, with VUN 110,013, in the test with VUN 110,012 and with VUN 110,010 was “−” each time.

As for `c1ccccc1` [Benzene], the Growth result with VUN 110,011, in the test with VUN 110,013, in the test with VUN 110,012 and with VUN 110,010 was “+” throughout. For the same compound, the “growth on compound” value in test [1] is given as “grew”.

`O=C(O)c1ccccc1` [Benzoic acid]: the Growth result in the test with VUN 110,011, with VUN 110,013, with VUN 110,012 and in the test on VUN 110,010 was “+” each time. The “growth on compound” value in test [1] is reported as “grew”.

For `Oc1ccccc1O` [Catechol], the Growth result with VUN 110,011, with VUN 110,013, with VUN 110,012 and with VUN 110,010 was “+” throughout. Moreover, the “growth on compound” value in test [1] was “grew”.

For `O=C(O)C=Cc1ccccc1` [Cinnamic acid], the Growth entry is on record as “−” in the test with VUN 110,011, “−” with VUN 110,013, “−” in the test on VUN 110,012 and “+” with VUN 110,010.

On to `c1cc2ccc3ccc4ccc5ccc6ccc1c1c2c3c4c5c61` [Coronene, coronene], for which the “Maximum Specific Degradation Rate” value in test [2] (Brij 35 5 g l^−1, Single PAH) was 0.79 mg PAH degraded mg^−1 protein day^−1; in test [2] (Brij 35 10 g l^−1, Single PAH) it was 1.19 mg PAH degraded mg^−1 protein day^−1; in test [2] (No Surfactant, Single PAH), 0.75 mg PAH degraded mg^−1 protein day^−1; in test [2] (setting [3]), 0.98 mg PAH degraded mg^−1 protein day^−1; in test [2] (setting [4]), 0.79 mg PAH degraded mg^−1 protein day^−1. In addition, the “percentage change in maximum specific degradation rate due to surfactant addition” value was “+5%” in test [2] (Brij 35 5 g l^−1, Single PAH); “+59%” in test [2] (Brij 35 10 g l^−1, Single PAH); “+31%” in test [2] (setting [3]); “+5%” in test [2] (setting [4]). Further, the “PAH degradation rate in the presence of surfactants” value in test [2] (Tergitol NP-10 5 and 10 g l^−1, high initial cell population) is given as “did not show improved PAH degradation rate”.

Consider `CC(C)(CO)[C@@H](O)C(=O)NCCC(=O)O` [D-panthothenic acid], for which the Growth result with VUN 110,011, with VUN 110,013, in the test on VUN 110,012 and with VUN 110,010 was “+” throughout.

For the compound `O=C(O)c1cc(O)ccc1O` [Gentisic acid], the Growth entry with VUN 110,011, with VUN 110,013, in the test with VUN 110,012 and in the test with VUN 110,010 was “+” in each case.

As for `O=C(O)/C=C\C(=O)O` [Maleic acid], the Growth result with VUN 110,011, in the test with VUN 110,013, in the test on VUN 110,012 and in the test on VUN 110,010 was “+” in each case.

Regarding `O=[N+]([O-])c1ccccc1` [Nitrobenzene], the Growth entry in the test with VUN 110,011 is “−”; in the test on VUN 110,013, “−”; with VUN 110,012 it was “+”; with VUN 110,010 it was “+”.

In the case of `Oc1c(Cl)c(Cl)c(Cl)c(Cl)c1Cl` [Pentachlorophenol], the Growth result is on record as “−” in the test on VUN 110,011, “−” in the test with VUN 110,013, “+” in the test on VUN 110,012 and “+” in the test on VUN 110,010.

Take `O=C(O)c1ccccc1C(=O)O` [Phthalic acid]: the Growth result in the test with VUN 110,011, in the test on VUN 110,013, in the test with VUN 110,012 and in the test on VUN 110,010 was “+” each time. The “growth on compound” value in test [1] is “grew”.

Consider `O=C(O)c1ccc(O)c(O)c1` [Protocatechuic acid], for which the Growth entry in the test with VUN 110,011, with VUN 110,013, in the test on VUN 110,012 and in the test with VUN 110,010 was “+” in each case. For the same compound, the “growth on compound” value in test [1] is “grew”.

With `CC(=O)C(=O)O` [Pyruvate], the Growth entry in the test on VUN 110,011, with VUN 110,013, with VUN 110,012 and in the test with VUN 110,010 was “+” in each case.

Turning to `O=C(O)c1ccccc1O` [Salicylic acid], the Growth entry in the test on VUN 110,011, in the test with VUN 110,013, in the test on VUN 110,012 and in the test with VUN 110,010 was “+” each time. In addition, the “growth on compound” value in test [1] is on record as “grew”.

As for `O=C(O)CCC(=O)O` [Succinic acid], the Growth result with VUN 110,011, in the test with VUN 110,013, with VUN 110,012 and in the test on VUN 110,010 was “+” throughout. Further, the “growth on compound” value in test [1] is listed as “grew”.

In the case of `Cc1ccccc1` [Toluene], the Growth result in the test on VUN 110,011 is on record as “+”; in the test on VUN 110,013, “−”; in the test on VUN 110,012, “+”; in the test on VUN 110,010 it was “+”. The “growth on compound” value in test [1] is on record as “grew”.

As to `CCCCCCCCCCCCCCCC` [n-hexadecane], the Growth entry in the test with VUN 110,011, in the test with VUN 110,013, in the test with VUN 110,012 and in the test with VUN 110,010 was “+” each time. Also, the “growth on compound” value in test [1] is on record as “grew”.

Consider `CCCCCCCC` [n-octane], for which the Growth entry in the test with VUN 110,011, in the test on VUN 110,013, in the test with VUN 110,012 and with VUN 110,010 was “+” throughout. In test [1], the “growth on compound” value was “grew”.

In the case of `O=C(O)c1ccc(O)cc1` [p-hydroxybenzoic acid], the Growth entry in the test on VUN 110,011, with VUN 110,013, in the test on VUN 110,012 and in the test on VUN 110,010 was “+” in each case. Moreover, the “growth on compound” value in test [1] was “grew”.

Consider Tween 20, for which the Growth entry in the test with VUN 110,011, in the test with VUN 110,013, in the test on VUN 110,012 and in the test on VUN 110,010 was “+” in each case. Moreover, the “growth on compound” value in test [1] was “grew”.

Turning to Tween 40, the “growth on compound” value in test [1] is “grew”.

For Tween 60, the “growth on compound” value in test [1] is listed as “grew”.

Regarding Tween 80, the Growth result with VUN 110,011, with VUN 110,013, in the test on VUN 110,012 and in the test on VUN 110,010 was “+” throughout. Also, in test [1], the “growth on compound” value is “grew”.
